# Measured values from patent US20080009418A1, “Selective Inhibitors” (Alchemia LTD., priority 2004, published 2008).
# Tests used:
# Details in all cases: compound at 10 μM
# Human μ-opioid (MOP) = target: T1, Human μ-opioid (MOP) (Homo sapiens, UniProt P35372); test: Radioligand binding, human μ-opioid (MOP) membranes, FlashPlate, [3H]-Naloxone
# T1 construct: purchased Perkin Elmer Biosignal
# How it was run: (§1)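 Cloned human receptor membranes were coated onto FlashPlate wells and incubated with radioligand and compound (added from a 0.5 mM DMSO daughter plate) for 1 hour at room temperature in the dark. Scintillation counting gave percent inhibition, with DMSO defining total and reference ligand defining non-specific binding.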
# Human Melanocortin (MC4) = target: T2, Human Melanocortin (MC4) (Homo sapiens, UniProt P32245); test: Radioligand binding, human melanocortin MC4 membranes, FlashPlate, [125I]-NDP-αMSH
# T2 construct: purchased Perkin Elmer Biosignal
# T2 sequence (P32245 whole entry): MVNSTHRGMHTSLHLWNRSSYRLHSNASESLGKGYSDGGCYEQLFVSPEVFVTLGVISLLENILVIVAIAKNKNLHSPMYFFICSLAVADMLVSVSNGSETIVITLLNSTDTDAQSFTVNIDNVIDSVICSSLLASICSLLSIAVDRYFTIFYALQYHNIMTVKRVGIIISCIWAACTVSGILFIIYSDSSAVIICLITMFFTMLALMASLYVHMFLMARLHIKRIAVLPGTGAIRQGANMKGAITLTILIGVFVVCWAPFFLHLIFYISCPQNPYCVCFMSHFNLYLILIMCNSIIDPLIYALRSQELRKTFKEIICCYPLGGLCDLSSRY
# How it was run: as §1
# Human δ-opioid (DOP) = target: T3, Human δ-opioid (DOP) (Homo sapiens, UniProt P41143); test: Radioligand binding, human δ-opioid (DOP) membranes, FlashPlate, [3H]-Bremazocine
# T3 construct: purchased Perkin Elmer Biosignal
# T3 sequence (P41143 whole entry): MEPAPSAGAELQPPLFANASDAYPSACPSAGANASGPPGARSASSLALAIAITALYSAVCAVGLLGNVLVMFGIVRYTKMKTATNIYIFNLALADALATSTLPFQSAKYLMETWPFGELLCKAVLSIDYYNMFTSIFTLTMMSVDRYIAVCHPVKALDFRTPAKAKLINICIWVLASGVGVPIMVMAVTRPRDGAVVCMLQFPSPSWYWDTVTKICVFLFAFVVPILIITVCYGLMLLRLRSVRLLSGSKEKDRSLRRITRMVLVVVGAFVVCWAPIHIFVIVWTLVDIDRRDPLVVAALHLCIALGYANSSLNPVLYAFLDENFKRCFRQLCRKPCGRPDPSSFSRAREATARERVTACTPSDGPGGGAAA
# How it was run: as §1
# Human opioid (ORL1) = target: T4, Human opioid (ORL1) (Homo sapiens, UniProt P41146); test: Radioligand binding, human opioid ORL1 membranes, FlashPlate, [125I]-Nociceptin
# T4 construct: purchased Perkin Elmer Biosignal
# T4 sequence (P41146 whole entry): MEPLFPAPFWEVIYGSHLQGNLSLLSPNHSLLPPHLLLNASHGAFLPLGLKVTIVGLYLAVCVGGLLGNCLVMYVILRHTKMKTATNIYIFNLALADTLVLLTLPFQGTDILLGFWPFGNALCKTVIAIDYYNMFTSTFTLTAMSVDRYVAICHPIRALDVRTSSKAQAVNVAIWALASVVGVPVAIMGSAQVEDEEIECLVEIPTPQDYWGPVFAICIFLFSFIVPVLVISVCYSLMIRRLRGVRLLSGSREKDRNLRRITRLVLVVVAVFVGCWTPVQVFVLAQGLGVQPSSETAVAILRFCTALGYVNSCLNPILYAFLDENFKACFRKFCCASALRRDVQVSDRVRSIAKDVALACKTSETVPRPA
# How it was run: as §1
# Human neurokinin (NK1) = target: T5, Human neurokinin (NK1) (Homo sapiens, UniProt P25103); test: Radioligand binding, human neurokinin NK1 membranes, filtration, [125I]-Substance P
# T5 construct: purchased Perkin Elmer Biosignal
# T5 sequence (P25103 whole entry): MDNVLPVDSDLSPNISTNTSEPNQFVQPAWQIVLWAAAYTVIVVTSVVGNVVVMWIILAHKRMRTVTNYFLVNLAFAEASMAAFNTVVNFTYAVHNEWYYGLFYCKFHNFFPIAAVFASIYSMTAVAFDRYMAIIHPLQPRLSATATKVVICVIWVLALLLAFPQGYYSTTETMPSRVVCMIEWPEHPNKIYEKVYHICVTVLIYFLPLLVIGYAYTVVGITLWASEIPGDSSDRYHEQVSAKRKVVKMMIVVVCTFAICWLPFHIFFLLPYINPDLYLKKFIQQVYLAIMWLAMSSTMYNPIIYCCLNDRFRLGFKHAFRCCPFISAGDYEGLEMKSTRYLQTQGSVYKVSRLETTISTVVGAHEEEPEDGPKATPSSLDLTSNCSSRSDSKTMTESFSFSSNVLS
# How it was run: (§2)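 Filtration binding on cloned human receptor membranes (1 Unit/well), [125I]-Substance P for NK1 and [3H]-Diprenorphine for KOP, 1 h at room temperature. Filters PEI-presoaked, washed with cold 50 mM Tris-HCl pH 7.4, counted by scintillation; percent inhibition calculated, reference ligand defining non-specific binding.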
# Human melanocortin (MC5) = target: T6, Human melanocortin (MC5) (Homo sapiens, UniProt P33032); test: Radioligand binding, human melanocortin MC5 membranes, FlashPlate, [125I]-NDP-αMSH
# T6 construct: purchased Perkin Elmer Biosignal
# T6 sequence (P33032 whole entry): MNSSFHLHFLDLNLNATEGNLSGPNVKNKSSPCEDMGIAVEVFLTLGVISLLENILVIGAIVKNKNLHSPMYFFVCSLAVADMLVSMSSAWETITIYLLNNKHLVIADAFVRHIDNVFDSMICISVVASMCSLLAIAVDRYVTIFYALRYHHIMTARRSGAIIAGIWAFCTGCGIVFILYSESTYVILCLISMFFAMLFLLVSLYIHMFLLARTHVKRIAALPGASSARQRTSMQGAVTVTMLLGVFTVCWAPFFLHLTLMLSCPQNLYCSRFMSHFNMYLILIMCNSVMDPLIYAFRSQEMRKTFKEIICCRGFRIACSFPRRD
# How it was run: as §1
# Mouse urotensin (mUR2) = target: T7, Mouse urotensin (mUR2) (Mus musculus, UniProt Q8VIH9); test: Radioligand binding, mouse urotensin mUR2 membranes, FlashPlate, [125I]-Urotensin II
# T7 construct: purchased Perkin Elmer Biosignal
# T7 sequence (Q8VIH9 1-385): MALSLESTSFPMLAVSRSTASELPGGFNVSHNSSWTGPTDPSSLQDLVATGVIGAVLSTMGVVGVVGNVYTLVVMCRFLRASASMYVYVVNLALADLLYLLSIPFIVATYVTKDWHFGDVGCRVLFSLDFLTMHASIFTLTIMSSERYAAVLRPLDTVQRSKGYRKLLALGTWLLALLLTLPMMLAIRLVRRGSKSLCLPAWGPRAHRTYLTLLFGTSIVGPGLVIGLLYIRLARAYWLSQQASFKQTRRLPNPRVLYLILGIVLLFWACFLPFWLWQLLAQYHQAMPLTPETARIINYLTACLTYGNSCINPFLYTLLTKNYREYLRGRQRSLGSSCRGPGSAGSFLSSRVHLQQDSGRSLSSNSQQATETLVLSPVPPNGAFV
# How it was run: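 Cloned mouse urotensin (mUR2) receptor membranes from Perkin Elmer Biosignal were immobilized in FlashPlate microplates using a proprietary coating. Each well got 19.5 μl buffer, then 0.5 μl of DMSO, reference ligand, or compound. Adding 5 μl of [125I]-Urotensin II, diluted to 5× final concentration in binding buffer, started binding. Plates were sealed with TopSeal-A and incubated 1 hour at room temperature in the dark. Wells were counted for 30 seconds each on a TopCount after a 60-second delay, and percentage inhibition was calculated.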
# Human Melanocortin (MC3) = target: T8, Human Melanocortin (MC3) (Homo sapiens, UniProt P41968); test: Radioligand binding, human melanocortin MC3 membranes, FlashPlate, [125I]-NDP-αMSH
# T8 construct: purchased Perkin Elmer Biosignal
# T8 sequence (P41968 whole entry): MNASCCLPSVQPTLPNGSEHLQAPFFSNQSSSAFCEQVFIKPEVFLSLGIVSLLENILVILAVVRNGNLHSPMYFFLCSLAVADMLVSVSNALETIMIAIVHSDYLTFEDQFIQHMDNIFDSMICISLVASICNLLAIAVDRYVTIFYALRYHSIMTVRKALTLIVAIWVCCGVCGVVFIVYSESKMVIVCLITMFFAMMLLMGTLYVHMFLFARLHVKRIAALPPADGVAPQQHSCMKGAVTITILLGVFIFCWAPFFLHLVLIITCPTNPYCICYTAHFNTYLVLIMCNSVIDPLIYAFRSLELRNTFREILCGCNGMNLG
# How it was run: as §1
# [1] = target: T9, Human neuropeptide Y (NPY-Y1) (Homo sapiens, UniProt P25929); test: Radioligand binding, human neuropeptide Y NPY-Y1 membranes, FlashPlate, [125I]-PYY
# T9 construct: purchased Perkin Elmer Biosignal
# T9 sequence (P25929 1-384): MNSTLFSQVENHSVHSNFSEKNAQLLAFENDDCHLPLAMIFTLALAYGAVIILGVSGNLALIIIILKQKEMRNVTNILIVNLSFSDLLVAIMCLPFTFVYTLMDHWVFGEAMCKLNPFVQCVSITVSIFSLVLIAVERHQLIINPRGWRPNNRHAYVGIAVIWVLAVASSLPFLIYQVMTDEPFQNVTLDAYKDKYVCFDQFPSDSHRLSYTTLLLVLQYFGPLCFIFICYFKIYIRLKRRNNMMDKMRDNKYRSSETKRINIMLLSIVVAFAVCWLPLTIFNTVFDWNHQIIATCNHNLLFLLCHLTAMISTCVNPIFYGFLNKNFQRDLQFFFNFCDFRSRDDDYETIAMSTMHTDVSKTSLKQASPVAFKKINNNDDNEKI
# How it was run: as §1
# [2] = target: T10, Human melanin-concentrating hormone (MCH1) (Homo sapiens, UniProt Q99705); test: Radioligand binding, human melanin-concentrating hormone MCH1 membranes, FlashPlate, [125I]-S36057
# T10 construct: purchased Perkin Elmer Biosignal
# T10 sequence (Q99705 whole entry): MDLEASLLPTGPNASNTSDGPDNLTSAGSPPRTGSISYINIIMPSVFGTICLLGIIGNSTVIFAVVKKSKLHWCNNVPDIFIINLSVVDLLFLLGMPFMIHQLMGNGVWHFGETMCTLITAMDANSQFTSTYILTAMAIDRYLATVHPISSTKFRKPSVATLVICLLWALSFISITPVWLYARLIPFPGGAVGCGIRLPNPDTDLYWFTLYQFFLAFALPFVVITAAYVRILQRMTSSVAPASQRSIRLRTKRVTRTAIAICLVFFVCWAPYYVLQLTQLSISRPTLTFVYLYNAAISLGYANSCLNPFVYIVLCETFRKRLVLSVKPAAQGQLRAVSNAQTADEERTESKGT
# How it was run: as §1
# Human κ-Opioid (KOP) = target: T11, Human κ-Opioid (KOP) (Homo sapiens, UniProt P41145); test: Radioligand binding, human κ-opioid (KOP) membranes, filtration, [3H]-Diprenorphine
# T11 construct: purchased Perkin Elmer Biosignal
# T11 sequence (P41145 whole entry): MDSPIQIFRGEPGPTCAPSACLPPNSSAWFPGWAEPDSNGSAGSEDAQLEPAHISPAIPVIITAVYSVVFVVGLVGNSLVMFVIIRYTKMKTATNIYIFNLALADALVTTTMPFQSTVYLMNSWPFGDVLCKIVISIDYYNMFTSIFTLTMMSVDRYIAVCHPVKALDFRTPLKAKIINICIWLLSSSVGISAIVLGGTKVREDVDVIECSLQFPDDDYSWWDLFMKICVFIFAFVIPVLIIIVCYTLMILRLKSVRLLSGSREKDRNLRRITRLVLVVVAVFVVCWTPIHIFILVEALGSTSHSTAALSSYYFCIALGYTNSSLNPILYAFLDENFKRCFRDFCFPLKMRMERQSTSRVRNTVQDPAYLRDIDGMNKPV
# How it was run: as §2
# T1 sequence (P35372 whole entry): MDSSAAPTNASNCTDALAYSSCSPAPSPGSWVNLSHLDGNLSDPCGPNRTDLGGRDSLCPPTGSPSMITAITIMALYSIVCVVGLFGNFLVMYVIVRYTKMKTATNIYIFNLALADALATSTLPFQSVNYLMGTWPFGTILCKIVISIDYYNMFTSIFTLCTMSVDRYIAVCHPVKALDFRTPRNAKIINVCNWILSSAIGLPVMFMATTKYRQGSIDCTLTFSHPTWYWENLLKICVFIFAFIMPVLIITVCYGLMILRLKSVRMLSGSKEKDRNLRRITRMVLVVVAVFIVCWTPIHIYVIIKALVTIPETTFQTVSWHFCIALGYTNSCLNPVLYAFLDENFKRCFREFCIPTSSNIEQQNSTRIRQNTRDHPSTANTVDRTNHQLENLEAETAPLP
smiles,measurement,setting,value
COCC1OC(OCc2ccccc2)C(NC(=O)CCCN)C(OCc2ccc(-c3ccccc3)cc2)C1O (stereo not shown) [compound 186],"A7 radioligand binding, percentage inhibition",Human μ-opioid (MOP); [3H]-Naloxone,− (“−” indicates less than 50% inhibition at 10 μM)
same,"A4 radioligand binding, percentage inhibition",Human Melanocortin (MC4); [125I]-NDP-αMSH,− (“−” indicates less than 50% inhibition at 10 μM)
same,"A1 radioligand binding, percentage inhibition",Human δ-opioid (DOP); [3H]-Bremazocine,− (“−” indicates less than 50% inhibition at 10 μM)
same,"A10 radioligand binding, percentage inhibition",Human opioid (ORL1); [125I]-Nociceptin,− (“−” indicates less than 50% inhibition at 10 μM)
same,"A8 radioligand binding, percentage inhibition",Human neurokinin (NK1); [125I]-Substance P,+ (“+” indicates greater than 50% inhibition at 10 μM)
same,"A5 radioligand binding, percentage inhibition",Human melanocortin (MC5); [125I]-NDP-αMSH,+ (“+” indicates greater than 50% inhibition at 10 μM)
same,"A11 radioligand binding, percentage inhibition",Mouse urotensin (mUR2); [125I]-Urotensin II,− (“−” indicates less than 50% inhibition at 10 μM)
same,"A3 radioligand binding, percentage inhibition",Human Melanocortin (MC3); [125I]-NDP-αMSH,− (“−” indicates less than 50% inhibition at 10 μM)
same,"A9 radioligand binding, percentage inhibition",[1]; [125I]-PYY,− (“−” indicates less than 50% inhibition at 10 μM)
same,"A6 radioligand binding, percentage inhibition",[2]; [125I]-S36057,− (“−” indicates less than 50% inhibition at 10 μM)
same,"A2 radioligand binding, percentage inhibition",Human κ-Opioid (KOP); [3H]-Diprenorphine,− (“−” indicates less than 50% inhibition at 10 μM)
CO[C@H]1[C@H](O)[C@@H](COCc2ccccc2)OC(OCc2ccc3ccccc3c2)[C@@H]1NC(=O)CCNC(=N)N (stereo partly shown) [compound 75],A7 radioligand binding inhibition,Human μ-opioid (MOP); human μ-opioid (MOP) membranes,+ (“+” indicates greater than 50% inhibition at 10 μM)
same,A4 radioligand binding inhibition,Human Melanocortin (MC4); human melanocortin MC4 membranes,− (“−” indicates less than 50% inhibition at 10 μM)
same,A1 radioligand binding inhibition,Human δ-opioid (DOP); human δ-opioid (DOP) membranes,− (“−” indicates less than 50% inhibition at 10 μM)
same,A10 radioligand binding inhibition,Human opioid (ORL1); human ORL1 membranes,− (“−” indicates less than 50% inhibition at 10 μM)
same,A8 radioligand binding inhibition,Human neurokinin (NK1); human neurokinin NK1 membranes,+ (“+” indicates greater than 50% inhibition at 10 μM)
same,A5 radioligand binding inhibition,Human melanocortin (MC5); human melanocortin MC5 membranes,− (“−” indicates less than 50% inhibition at 10 μM)
same,A11 radioligand binding inhibition,Mouse urotensin (mUR2); mouse urotensin mUR2 membranes,− (“−” indicates less than 50% inhibition at 10 μM)
same,A3 radioligand binding inhibition,Human Melanocortin (MC3); human melanocortin MC3 membranes,− (“−” indicates less than 50% inhibition at 10 μM)
same,A9 radioligand binding inhibition,[1]; human NPY-Y1 membranes,− (“−” indicates less than 50% inhibition at 10 μM)
same,A6 radioligand binding inhibition,[2]; human MCH1 membranes,− (“−” indicates less than 50% inhibition at 10 μM)
same,A2 radioligand binding inhibition,Human κ-Opioid (KOP); human κ-opioid (KOP) membranes,− (“−” indicates less than 50% inhibition at 10 μM)
CSC1O[C@H](COCc2ccc(Cl)cc2)[C@@H](O)[C@@H](OCc2ccc(-c3ccccc3)cc2)[C@H]1NC(=O)CN (stereo partly shown) [compound 288],"A7: inhibition of radioligand binding, human μ-opioid (MOP)",Human μ-opioid (MOP); [3H]-Naloxone,− (“−” indicates less than 50% inhibition at 10 μM)
same,"A4: inhibition of radioligand binding, human melanocortin (MC4)",Human Melanocortin (MC4); [125I]-NDP-αMSH,− (“−” indicates less than 50% inhibition at 10 μM)
same,"A1: inhibition of radioligand binding, human δ-opioid (DOP)",Human δ-opioid (DOP); [3H]-Bremazocine,− (“−” indicates less than 50% inhibition at 10 μM)
same,"A10: inhibition of radioligand binding, human opioid (ORL1)",Human opioid (ORL1); [125I]-Nociceptin,− (“−” indicates less than 50% inhibition at 10 μM)
same,"A8: inhibition of radioligand binding, human neurokinin (NK1)",Human neurokinin (NK1); [125I]-Substance P,+ (“+” indicates greater than 50% inhibition at 10 μM)
same,"A5: inhibition of radioligand binding, human melanocortin (MC5)",Human melanocortin (MC5); [125I]-NDP-αMSH,− (“−” indicates less than 50% inhibition at 10 μM)
same,"A11: inhibition of radioligand binding, mouse urotensin (mUR2)",Mouse urotensin (mUR2); [125I]-Urotensin II,− (“−” indicates less than 50% inhibition at 10 μM)
same,"A3: inhibition of radioligand binding, human melanocortin (MC3)",Human Melanocortin (MC3); [125I]-NDP-αMSH,− (“−” indicates less than 50% inhibition at 10 μM)
same,"A9: inhibition of radioligand binding, human neuropeptide Y (NPY-Y1)",[1]; [125I]-PYY,− (“−” indicates less than 50% inhibition at 10 μM)
same,"A6: inhibition of radioligand binding, human melanin-concentrating hormone (MCH1)",[2]; [125I]-S36057,− (“−” indicates less than 50% inhibition at 10 μM)
same,"A2: inhibition of radioligand binding, human κ-opioid (KOP)",Human κ-Opioid (KOP); [3H]-Diprenorphine,− (“−” indicates less than 50% inhibition at 10 μM)
COCC1OC(OCc2ccc3ccccc3c2)C(NC(=O)CN)C(OCc2ccc3ccccc3c2)C1O (stereo not shown) [compound 246],A7: inhibition of radioligand binding,"Human μ-opioid (MOP); [3H]-Naloxone, FlashPlate",− (“−” indicates less than 50% inhibition at 10 μM)
same,A4: inhibition of radioligand binding,"Human Melanocortin (MC4); [125I]-NDP-αMSH, FlashPlate",− (“−” indicates less than 50% inhibition at 10 μM)
same,A1: inhibition of radioligand binding,"Human δ-opioid (DOP); [3H]-Bremazocine, FlashPlate",− (“−” indicates less than 50% inhibition at 10 μM)
same,A10: inhibition of radioligand binding,"Human opioid (ORL1); [125I]-Nociceptin, FlashPlate",− (“−” indicates less than 50% inhibition at 10 μM)
same,A8: inhibition of radioligand binding,"Human neurokinin (NK1); [125I]-Substance P, filtration",+ (“+” indicates greater than 50% inhibition at 10 μM)
same,A5: inhibition of radioligand binding,"Human melanocortin (MC5); [125I]-NDP-αMSH, FlashPlate",− (“−” indicates less than 50% inhibition at 10 μM)
same,A11: inhibition of radioligand binding,"Mouse urotensin (mUR2); [125I]-Urotensin II, FlashPlate",− (“−” indicates less than 50% inhibition at 10 μM)
same,A3: inhibition of radioligand binding,"Human Melanocortin (MC3); [125I]-NDP-αMSH, FlashPlate",− (“−” indicates less than 50% inhibition at 10 μM)
same,A9: inhibition of radioligand binding,"[1]; [125I]-PYY, FlashPlate",− (“−” indicates less than 50% inhibition at 10 μM)
same,A6: inhibition of radioligand binding,"[2]; [125I]-S36057, FlashPlate",− (“−” indicates less than 50% inhibition at 10 μM)
same,A2: inhibition of radioligand binding,"Human κ-Opioid (KOP); [3H]-Diprenorphine, filtration",− (“−” indicates less than 50% inhibition at 10 μM)
N=C(N)NCC(=O)N[C@H]1C(OCc2ccc(Cl)cc2)O[C@H](COCc2ccc3ccccc3c2)[C@@H](O)[C@@H]1OCc1ccc2ccccc2c1 (stereo partly shown) [compound 513],"A7: inhibition of radioligand binding, human μ-opioid (MOP)",Human μ-opioid (MOP); [3H]-Naloxone,+ (“+” indicates greater than 50% inhibition at 10 μM)
same,"A4: inhibition of radioligand binding, human melanocortin (MC4)",Human Melanocortin (MC4); [125I]-NDP-αMSH,+ (“+” indicates greater than 50% inhibition at 10 μM)
same,"A1: inhibition of radioligand binding, human δ-opioid (DOP)",Human δ-opioid (DOP); [3H]-Bremazocine,− (“−” indicates less than 50% inhibition at 10 μM)
same,"A10: inhibition of radioligand binding, human opioid (ORL1)",Human opioid (ORL1); [125I]-Nociceptin,+ (“+” indicates greater than 50% inhibition at 10 μM)
same,"A8: inhibition of radioligand binding, human neurokinin (NK1)",Human neurokinin (NK1); [125I]-Substance P,+ (“+” indicates greater than 50% inhibition at 10 μM)
same,"A5: inhibition of radioligand binding, human melanocortin (MC5)",Human melanocortin (MC5); [125I]-NDP-αMSH,+ (“+” indicates greater than 50% inhibition at 10 μM)
same,"A11: inhibition of radioligand binding, mouse urotensin (mUR2)",Mouse urotensin (mUR2); [125I]-Urotensin II,− (“−” indicates less than 50% inhibition at 10 μM)
same,"A3: inhibition of radioligand binding, human melanocortin (MC3)",Human Melanocortin (MC3); [125I]-NDP-αMSH,+ (“+” indicates greater than 50% inhibition at 10 μM)
same,"A9: inhibition of radioligand binding, human neuropeptide Y (NPY-Y1)","[1]; [125I]-PYY, 10 µM",+ (“+” indicates greater than 50% inhibition at 10 μM)
same,"A6: inhibition of radioligand binding, human melanin-concentrating hormone (MCH1)",[2]; [125I]-S36057,+ (“+” indicates greater than 50% inhibition at 10 μM)
same,"A2: inhibition of radioligand binding, human κ-opioid (KOP)","Human κ-Opioid (KOP); [3H]-Diprenorphine, 10 µM",+ (“+” indicates greater than 50% inhibition at 10 μM)
